Test results: the supplement of paper PMC5722580

Tests used:
[1] = test system: HEK293-SIE STAT3 Y640F; assay: drug sensitivity score (inhibition of STAT3 luciferase reporter); higher = stronger inhibition; details: 6 h; IL6 0 ng/ml
Description: (§1)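 HEK293 cells with a STAT3-inducible (SIE) luciferase reporter, stably expressing WT STAT3 (IL6 100 ng/ml) or Y640F STAT3 (no IL6), were incubated 6 h with drugs in 384-well plates (5-8 concentrations over a 10,000-fold range); luciferase was read with ONE-Glo. DSS is a normalised area under the dose-response curve; values are the mean of two experiments.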

[2] = test system: HEK293-SIE STAT3 WT; assay: as above; details: 6 h; STAT3: WT; IL6 100 ng/ml
Description: as §1

[3] = test system: NKL; assay: drug sensitivity score (viability inhibition); higher = more sensitive; details: 72 h; IL2 2.5 ng/ml
Description: (§2)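 NK-cell leukemia/lymphoma cell lines (3,000 cells/well) were cultured with IL2 2.5 ng/ml in 384-well drug plates (5-8 concentrations over a 10,000-fold range) for 72 h at 37 C; viability was read with CellTiter-Glo. DSS is a normalised area under the dose-response curve; the experiment was repeated twice.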

[4] = test system: YT; assay: as above; details: 72 h; IL2 2.5 ng/ml
Description: as §2

[5] = test system: NK-YS; assay: as above; details: 72 h; IL2 2.5 ng/ml
Description: as §2

[6] = test system: KHYG-1; assay: as above; details: 72 h; IL2 2.5 ng/ml
Description: as §2

[7] = test system: SNK6; assay: as above; details: 72 h; IL2 2.5 ng/ml
Description: as §2

[8] = test system: KAI3; assay: as above; details: 72 h; IL2 2.5 ng/ml
Description: as §2

[9] = test system: NK-92; assay: as above; details: 72 h; IL2 2.5 ng/ml
Description: as §2

Molecule `CC[C@H](Nc1ncnc2[nH]cnc12)c1nc2cccc(F)c2c(=O)n1-c1ccccc1` [Idelalisib] has a drug sensitivity score [1] of 3.9 DSS, a drug sensitivity score [2] of 0 DSS and a drug sensitivity score [3] of 1.96 DSS. The drug sensitivity score [4] was 1.42 DSS, the drug sensitivity score [5] was 0.598 DSS and the drug sensitivity score [6] was 0.4 DSS. For the same molecule, the drug sensitivity score [7] was 5.48 DSS, the drug sensitivity score [8] was 1.38 DSS and the drug sensitivity score [9] was 9.76 DSS.

`O=[N+]([O-])c1ccc2c(c1)S(=O)(=O)C=C2` [Stattic] gave a drug sensitivity score [1] of 7.37 DSS, a drug sensitivity score [2] of 8.32 DSS and a drug sensitivity score [3] of 10.7 DSS. For the same molecule, the drug sensitivity score [4] was 14.6 DSS, the drug sensitivity score [5] was 12.4 DSS and the drug sensitivity score [6] was 13.3 DSS. It also gave a drug sensitivity score [7] of 14.1 DSS, a drug sensitivity score [8] of 14.3 DSS and a drug sensitivity score [9] of 13.2 DSS.

With `COc1cc(Nc2ncc(F)c(Nc3ccc4c(n3)N(COP(=O)(O)O)C(=O)C(C)(C)O4)n2)cc(OC)c1OC` [Fostamatinib] the drug sensitivity score [1] was 2.93 DSS, the drug sensitivity score [2] was 9.75 DSS and the drug sensitivity score [3] was 4.15 DSS. For the same molecule, the drug sensitivity score [4] was 2.81 DSS, the drug sensitivity score [5] was 1.04 DSS and the drug sensitivity score [6] was 1.22 DSS. It also gave a drug sensitivity score [7] of 3.04 DSS, a drug sensitivity score [8] of 7.41 DSS and a drug sensitivity score [9] of 3.43 DSS.

`C=CCn1c(=O)c2cnc(Nc3ccc(N4CCN(C)CC4)cc3)nc2n1-c1cccc(C(C)(C)O)n1` [MK1775] gave a drug sensitivity score [1] of 8.87 DSS, a drug sensitivity score [2] of 9.88 DSS and a drug sensitivity score [3] of 22.5 DSS. It also gave a drug sensitivity score [4] of 19.8 DSS, a drug sensitivity score [5] of 20.5 DSS and a drug sensitivity score [6] of 24.5 DSS. It also gave a drug sensitivity score [7] of 19.7 DSS, a drug sensitivity score [8] of 19.9 DSS and a drug sensitivity score [9] of 23 DSS.

Molecule `CNC(=O)c1ccccc1Sc1ccc2c(/C=C/c3ccccn3)n[nH]c2c1` [Axitinib] has a drug sensitivity score [1] of 0 DSS, a drug sensitivity score [2] of 0 DSS and a drug sensitivity score [3] of 8.05 DSS. For the same molecule, the drug sensitivity score [4] was 8.91 DSS, the drug sensitivity score [5] was 10.2 DSS and the drug sensitivity score [6] was 10.9 DSS. The drug sensitivity score [7] was 8.94 DSS, the drug sensitivity score [8] was 10.9 DSS and the drug sensitivity score [9] was 6.72 DSS.

`CO[C@H]1C[C@@H]2CC[C@@H](C)[C@@](O)(O2)C(=O)C(=O)N2CCCC[C@H]2C(=O)O[C@H]([C@H](C)C[C@@H]2CC[C@@H](OCCO)[C@H](OC)C2)CC(=O)[C@H](C)/C=C(\C)[C@@H](O)[C@@H](OC)C(=O)[C@H](C)C[C@H](C)/C=C/C=C/C=C/1C` [Everolimus] was tested, and the drug sensitivity score [1] was 8.9 DSS, the drug sensitivity score [2] was 3.15 DSS and the drug sensitivity score [3] was 17.4 DSS. The drug sensitivity score [4] was 11.8 DSS, the drug sensitivity score [5] was 16.8 DSS and the drug sensitivity score [6] was 5.9 DSS. For the same molecule, the drug sensitivity score [7] was 12.2 DSS, the drug sensitivity score [8] was 6.6 DSS and the drug sensitivity score [9] was 1.19 DSS.

`CN(Cc1cnc2nc(N)nc(N)c2n1)c1ccc(C(=O)N[C@@H](CCC(=O)O)C(=O)O)cc1` [Methotrexate] was tested, and the drug sensitivity score [1] was 0.233 DSS, the drug sensitivity score [2] was 1.4 DSS and the drug sensitivity score [3] was 8.04 DSS. For the same molecule, the drug sensitivity score [4] was 15.8 DSS, the drug sensitivity score [5] was 18.8 DSS and the drug sensitivity score [6] was 15.1 DSS. The drug sensitivity score [7] was 21.2 DSS, the drug sensitivity score [8] was 12.8 DSS and the drug sensitivity score [9] was 12.2 DSS.

For `CC(C)(C)c1cnc(CSc2cnc(NC(=O)C3CCNCC3)s2)o1` [SNS-032], the drug sensitivity score [1] was 18.9 DSS, the drug sensitivity score [2] was 21.8 DSS and the drug sensitivity score [3] was 29.4 DSS. For the same molecule, the drug sensitivity score [4] was 26.1 DSS, the drug sensitivity score [5] was 30.3 DSS and the drug sensitivity score [6] was 20.5 DSS. It also gave a drug sensitivity score [7] of 10.5 DSS, a drug sensitivity score [8] of 21.1 DSS and a drug sensitivity score [9] of 19.2 DSS.

With `C#Cc1cccc(Nc2ncnc3cc4c(cc23)OCCOCCOCCO4)c1` [Icotinib] the drug sensitivity score [1] was 0 DSS, the drug sensitivity score [2] was 2.75 DSS and the drug sensitivity score [3] was 0 DSS. For the same molecule, the drug sensitivity score [4] was 0.21 DSS, the drug sensitivity score [5] was 0.207 DSS and the drug sensitivity score [6] was 0.998 DSS. The drug sensitivity score [7] was 2.53 DSS, the drug sensitivity score [8] was 0.075 DSS and the drug sensitivity score [9] was 2.41 DSS.

Work on `Cc1cc(Nc2nc(N[C@@H](C)c3ncc(F)cn3)ncc2Cl)[nH]n1` [AZD1480] yielded a drug sensitivity score [1] of 8.77 DSS, a drug sensitivity score [2] of 17.9 DSS and a drug sensitivity score [3] of 13.7 DSS. For the same molecule, the drug sensitivity score [4] was 6.65 DSS, the drug sensitivity score [5] was 10.7 DSS and the drug sensitivity score [6] was 18.3 DSS. The drug sensitivity score [7] was 12.1 DSS, the drug sensitivity score [8] was 17.4 DSS and the drug sensitivity score [9] was 7.65 DSS.

`FC(F)c1nc2ccccc2n1-c1nc(N2CCOCC2)nc(N2CCOCC2)n1` [ZSTK474] was tested, and the drug sensitivity score [1] was 4.7 DSS, the drug sensitivity score [2] was 2.77 DSS and the drug sensitivity score [3] was 9.94 DSS. It also gave a drug sensitivity score [4] of 7.9 DSS, a drug sensitivity score [5] of 9.54 DSS and a drug sensitivity score [6] of 2.23 DSS. It also gave a drug sensitivity score [7] of 7.75 DSS, a drug sensitivity score [8] of 5.42 DSS and a drug sensitivity score [9] of 12.8 DSS.

`Cn1cc(CNCC2CCN(c3ncc(C(=O)NO)cn3)CC2)c2ccccc21` [Quisinostat] gave a drug sensitivity score [1] of 1.9 DSS, a drug sensitivity score [2] of 2.3 DSS and a drug sensitivity score [3] of 22 DSS. For the same molecule, the drug sensitivity score [4] was 14.2 DSS, the drug sensitivity score [5] was 22 DSS and the drug sensitivity score [6] was 20.4 DSS. The drug sensitivity score [7] was 13.3 DSS, the drug sensitivity score [8] was 16.1 DSS and the drug sensitivity score [9] was 13.8 DSS.

For `Cn1c(=O)n(-c2ccc(C(C)(C)C#N)cc2)c2c3cc(-c4cnc5ccccc5c4)ccc3ncc21` [Dactolisib], the drug sensitivity score [1] was 12.8 DSS, the drug sensitivity score [2] was 15.1 DSS and the drug sensitivity score [3] was 18.2 DSS. It also gave a drug sensitivity score [4] of 13.4 DSS, a drug sensitivity score [5] of 15.8 DSS and a drug sensitivity score [6] of 14 DSS. The drug sensitivity score [7] was 8.33 DSS, the drug sensitivity score [8] was 10.3 DSS and the drug sensitivity score [9] was 12 DSS.

In the case of `NC1(c2ccc(-c3nc4ccn5c(=O)[nH]nc5c4cc3-c3ccccc3)cc2)CCC1` [MK-2206], the drug sensitivity score [1] is reported as 0 DSS, the drug sensitivity score [2] is reported as 5.85 DSS and the drug sensitivity score [3] is reported as 4.44 DSS. It also gave a drug sensitivity score [4] of 2.45 DSS, a drug sensitivity score [5] of 5 DSS and a drug sensitivity score [6] of 4.1 DSS. The drug sensitivity score [7] was 2.89 DSS, the drug sensitivity score [8] was 6.43 DSS and the drug sensitivity score [9] was 6.29 DSS.

`COC(=O)C[C@](O)(CCCC(C)(C)O)C(=O)O[C@@H]1C(OC)=C[C@]23CCCN2CCc2cc4c(cc2[C@H]13)OCO4` [homoharringtonine] gave a drug sensitivity score [1] of 36.6 DSS, a drug sensitivity score [2] of 39 DSS and a drug sensitivity score [3] of 32.2 DSS. The drug sensitivity score [4] was 34.5 DSS, the drug sensitivity score [5] was 32.5 DSS and the drug sensitivity score [6] was 29.6 DSS. For the same molecule, the drug sensitivity score [7] was 34.6 DSS, the drug sensitivity score [8] was 33.4 DSS and the drug sensitivity score [9] was 31.2 DSS.

`C[C@]12C=CC(=O)C=C1CC[C@@H]1[C@@H]2[C@@H](O)C[C@@]2(C)[C@H]1CC[C@]2(O)C(=O)CO` [Prednisolone] was tested, and the drug sensitivity score [1] was 0 DSS, the drug sensitivity score [2] was 0 DSS and the drug sensitivity score [3] was 11 DSS. For the same molecule, the drug sensitivity score [4] was 5.05 DSS, the drug sensitivity score [5] was 1.37 DSS and the drug sensitivity score [6] was 6.65 DSS. It also gave a drug sensitivity score [7] of 2.12 DSS, a drug sensitivity score [8] of 0 DSS and a drug sensitivity score [9] of 0 DSS.

In the case of `N#C/C(=C\c1ccc(O)c(O)c1)C(=O)NCc1ccccc1` [AG490], the drug sensitivity score [1] is reported as 1.9 DSS, the drug sensitivity score [2] is reported as 1.18 DSS and the drug sensitivity score [3] is reported as 10.3 DSS. For the same molecule, the drug sensitivity score [4] was 8.84 DSS, the drug sensitivity score [5] was 13.3 DSS and the drug sensitivity score [6] was 8.13 DSS. For the same molecule, the drug sensitivity score [7] was 10.2 DSS, the drug sensitivity score [8] was 8.31 DSS and the drug sensitivity score [9] was 9.21 DSS.

`O=S(=O)(c1cccc2cnccc12)N1CCCNCC1` [Fasudil] gave a drug sensitivity score [1] of 0 DSS, a drug sensitivity score [2] of 1.9 DSS and a drug sensitivity score [3] of 0.632 DSS. The drug sensitivity score [4] was 1.44 DSS, the drug sensitivity score [5] was 0.1 DSS and the drug sensitivity score [6] was 1.2 DSS. The drug sensitivity score [7] was 0.11 DSS, the drug sensitivity score [8] was 2.61 DSS and the drug sensitivity score [9] was 2.52 DSS.

`Cc1sc2c(c1C)C(c1ccc(Cl)cc1)=N[C@@H](CC(=O)OC(C)(C)C)c1nnc(C)n1-2` [(+)-JQ1] was tested, and the drug sensitivity score [1] was 0 DSS, the drug sensitivity score [2] was 16.6 DSS and the drug sensitivity score [3] was 13.7 DSS. For the same molecule, the drug sensitivity score [4] was 11.1 DSS, the drug sensitivity score [5] was 15.9 DSS and the drug sensitivity score [6] was 18.9 DSS. For the same molecule, the drug sensitivity score [7] was 12.4 DSS, the drug sensitivity score [8] was 4.93 DSS and the drug sensitivity score [9] was 3.16 DSS.

For `CC1(COc2ccc3c(c2)ncn3-c2ccc3cccc(N4CCC(N)CC4)c3n2)COC1` [Crenolanib], the drug sensitivity score [1] was 4.25 DSS, the drug sensitivity score [2] was 3.05 DSS and the drug sensitivity score [3] was 10.3 DSS. The drug sensitivity score [4] was 7.98 DSS, the drug sensitivity score [5] was 7.55 DSS and the drug sensitivity score [6] was 7.73 DSS. For the same molecule, the drug sensitivity score [7] was 9.96 DSS, the drug sensitivity score [8] was 5.4 DSS and the drug sensitivity score [9] was 9.79 DSS.
